The supplement of paper PMC13380429

Experiments:
Conditions in all cases: 72 h
[1] = test system: Vero E6; experiment: drug sensitivity score (DSS) for viability; higher = more toxic; extreme values may be limits of the assay
[2] = test system: Caco-2; experiment: as above
[3] = test system: U2OS; experiment: as above
[4] = test system: HepG2; experiment: as above
[5] = test system: Vero E6; experiment: cell viability relative to DMSO; higher = less toxic
[6] = test system: Caco-2; experiment: as above
[7] = test system: U2OS; experiment: as above
[8] = test system: HepG2; experiment: as above
[9] = test system: Vero E6; experiment: relative viability EC50 (midpoint between 100% and the lowest measured viability); higher = less toxic
[10] = test system: U2OS; experiment: as above
[11] = test system: HepG2; experiment: as above
[12] = test system: Calu-3; experiment: drug sensitivity score (DSS) for viability; higher = more toxic; extreme values may be limits of the assay
[13] = test system: Calu-3; experiment: cell viability relative to DMSO; higher = less toxic
[14] = test system: Calu-3; experiment: relative viability EC50 (midpoint between 100% and the lowest measured viability); higher = less toxic
[15] = test system: Caco-2; experiment: as above

CN1C(=O)CC[C@H]1c1cccnc1 [cotinine]
drug sensitivity score [1]: 0 | drug sensitivity score [2]: 5.4 | drug sensitivity score [3]: 0 | drug sensitivity score [4]: 0 | cell viability ([5]; 1 nM): 95.9% | cell viability ([5]; 10 nM): 92.8% | cell viability ([5]; 100 nM): 94% | cell viability ([5]; 1000 nM): 95.7% | cell viability ([5]; 10000 nM): 106% | cell viability ([6]; 1 nM): 71.1% | cell viability ([6]; 10 nM): 74.2% | cell viability ([6]; 100 nM): 84.3% | cell viability ([6]; 1000 nM): 83% | cell viability ([6]; 10000 nM): 106% | cell viability ([7]; 1 nM): 94.7% | cell viability ([7]; 10 nM): 97.2% | cell viability ([7]; 100 nM): 92.9% | cell viability ([7]; 1000 nM): 95.7% | cell viability ([7]; 10000 nM): 102% | cell viability ([8]; 1 nM): 104% | cell viability ([8]; 10 nM): 99.4% | cell viability ([8]; 100 nM): 106% | cell viability ([8]; 1000 nM): 105% | cell viability ([8]; 10000 nM): 96.2% | relative viability EC50 [9]: > 10 µM | relative viability EC50 [10]: > 10 µM | relative viability EC50 [11]: > 10 µM

Cc1c2oc3c(C)ccc(C(=O)N[C@@H]4C(=O)N[C@H](C(C)C)C(=O)N5CCC[C@H]5C(=O)N(C)CC(=O)N(C)[C@@H](C(C)C)C(=O)O[C@@H]4C)c3nc-2c(C(=O)N[C@@H]2C(=O)N[C@H](C(C)C)C(=O)N3CCC[C@H]3C(=O)N(C)CC(=O)N(C)[C@@H](C(C)C)C(=O)O[C@@H]2C)c(N)c1=O [dactinomycin]
drug sensitivity score [1]: 18.7 | drug sensitivity score [2]: 16.4 | drug sensitivity score [3]: 27.7 | drug sensitivity score [4]: 35.8 | drug sensitivity score [12]: 22.9 | cell viability ([5]; 1 nM): 101% | cell viability ([5]; 10 nM): 104% | cell viability ([5]; 100 nM): 91.9% | cell viability ([5]; 1000 nM): 3.5% | cell viability ([5]; 10000 nM): 8.7% | cell viability ([6]; 1 nM): 108% | cell viability ([6]; 10 nM): 83.7% | cell viability ([6]; 100 nM): 54.8% | cell viability ([6]; 1000 nM): 63.4% | cell viability ([6]; 10000 nM): 57.4% | cell viability ([7]; 1 nM): 98.8% | cell viability ([7]; 10 nM): 74.2% | cell viability ([7]; 100 nM): 34.2% | cell viability ([7]; 1000 nM): 1.1% | cell viability ([7]; 10000 nM): 1.3% | cell viability ([8]; 1 nM): 99% | cell viability ([8]; 10 nM): 42.5% | cell viability ([8]; 100 nM): 15.8% | cell viability ([8]; 1000 nM): 4.4% | cell viability ([8]; 10000 nM): 4.1% | cell viability ([13]; 1 nM): 99.5% | cell viability ([13]; 10 nM): 75% | cell viability ([13]; 100 nM): 41% | cell viability ([13]; 1000 nM): 29.7% | cell viability ([13]; 10000 nM): 37.4% | relative viability EC50 [9]: 0.248 µM | relative viability EC50 [10]: 0.0387 µM | relative viability EC50 [11]: 0.0079 µM | relative viability EC50 [14]: 0.0187 µM

CON(C)C(=O)N1N=C(c2cc(F)ccc2F)S[C@@]1(CCCN)c1ccccc1 [filanesib]
drug sensitivity score [1]: 20.2 | drug sensitivity score [2]: 12.9 | drug sensitivity score [3]: 16.7 | drug sensitivity score [4]: 26.8 | drug sensitivity score [12]: 2 | cell viability ([5]; 1 nM): 106% | cell viability ([5]; 10 nM): 81.9% | cell viability ([5]; 100 nM): 45.1% | cell viability ([5]; 1000 nM): 46.4% | cell viability ([5]; 10000 nM): 40.7% | cell viability ([6]; 1 nM): 96.7% | cell viability ([6]; 10 nM): 76.6% | cell viability ([6]; 100 nM): 68.7% | cell viability ([6]; 1000 nM): 68.4% | cell viability ([6]; 10000 nM): 62.1% | cell viability ([7]; 1 nM): 98.2% | cell viability ([7]; 10 nM): 97.8% | cell viability ([7]; 100 nM): 50.8% | cell viability ([7]; 1000 nM): 43.5% | cell viability ([7]; 10000 nM): 43.8% | cell viability ([8]; 1 nM): 98% | cell viability ([8]; 10 nM): 50% | cell viability ([8]; 100 nM): 35.1% | cell viability ([8]; 1000 nM): 34.1% | cell viability ([8]; 10000 nM): 34.4% | cell viability ([13]; 1 nM): 97% | cell viability ([13]; 10 nM): 104% | cell viability ([13]; 100 nM): 87.8% | cell viability ([13]; 1000 nM): 88.1% | cell viability ([13]; 10000 nM): 79.3% | relative viability EC50 [9]: 0.0172 µM | relative viability EC50 [10]: 0.0424 µM | relative viability EC50 [11]: 0.0056 µM | relative viability EC50 [14]: > 10 µM

CC(C)C[C@H](NC(=O)[C@@H](COC(C)(C)C)NC(=O)[C@H](Cc1ccc(O)cc1)NC(=O)[C@H](CO)NC(=O)[C@H](Cc1c[nH]c2ccccc12)NC(=O)[C@H](Cc1cnc[nH]1)NC(=O)[C@@H]1CCC(=O)N1)C(=O)N[C@@H](CCCNC(=N)N)C(=O)N1CCC[C@H]1C(=O)NNC(N)=O [goserelin-acetate]
drug sensitivity score [1]: 0.1 | drug sensitivity score [2]: 0.6 | drug sensitivity score [3]: 0 | drug sensitivity score [4]: 0 | drug sensitivity score [12]: 0 | cell viability ([5]; 1 nM): 91% | cell viability ([5]; 10 nM): 104% | cell viability ([5]; 100 nM): 104% | cell viability ([5]; 1000 nM): 95.3% | cell viability ([5]; 10000 nM): 88.7% | cell viability ([6]; 1 nM): 96.9% | cell viability ([6]; 10 nM): 106% | cell viability ([6]; 100 nM): 96.6% | cell viability ([6]; 1000 nM): 73.5% | cell viability ([6]; 10000 nM): 94.1% | cell viability ([7]; 1 nM): 107% | cell viability ([7]; 10 nM): 101% | cell viability ([7]; 100 nM): 99.2% | cell viability ([7]; 1000 nM): 98.7% | cell viability ([7]; 10000 nM): 96.7% | cell viability ([8]; 1 nM): 108% | cell viability ([8]; 10 nM): 92.9% | cell viability ([8]; 100 nM): 100% | cell viability ([8]; 1000 nM): 92.1% | cell viability ([8]; 10000 nM): 98.7% | cell viability ([13]; 1 nM): 99.4% | cell viability ([13]; 10 nM): 97.7% | cell viability ([13]; 100 nM): 96.1% | cell viability ([13]; 1000 nM): 95.4% | cell viability ([13]; 10000 nM): 104% | relative viability EC50 [9]: > 10 µM | relative viability EC50 [10]: > 10 µM | relative viability EC50 [11]: > 10 µM | relative viability EC50 [14]: > 10 µM

COc1ccccc1OC(=O)c1ccccc1OC(C)=O [guacetisal]
drug sensitivity score [1]: 0 | drug sensitivity score [3]: 0 | drug sensitivity score [4]: 0 | drug sensitivity score [12]: 0 | cell viability ([5]; 1 nM): 101% | cell viability ([5]; 10 nM): 105% | cell viability ([5]; 100 nM): 101% | cell viability ([5]; 1000 nM): 102% | cell viability ([5]; 10000 nM): 98.9% | cell viability ([7]; 1 nM): 97.3% | cell viability ([7]; 10 nM): 96.8% | cell viability ([7]; 100 nM): 99.2% | cell viability ([7]; 1000 nM): 104% | cell viability ([7]; 10000 nM): 99% | cell viability ([8]; 1 nM): 97.1% | cell viability ([8]; 10 nM): 115% | cell viability ([8]; 100 nM): 104% | cell viability ([8]; 1000 nM): 104% | cell viability ([8]; 10000 nM): 88.4% | cell viability ([13]; 1 nM): 105% | cell viability ([13]; 10 nM): 90.9% | cell viability ([13]; 100 nM): 108% | cell viability ([13]; 1000 nM): 102% | cell viability ([13]; 10000 nM): 97.4% | relative viability EC50 [9]: > 10 µM | relative viability EC50 [10]: > 10 µM | relative viability EC50 [11]: > 10 µM | relative viability EC50 [14]: > 10 µM

CC(C)(C)NC(=O)[C@@H]1CN(Cc2cccnc2)CCN1C[C@@H](O)C[C@@H](Cc1ccccc1)C(=O)N[C@H]1c2ccccc2C[C@H]1O [indinavir]
drug sensitivity score [1]: 0 | drug sensitivity score [3]: 0 | drug sensitivity score [4]: 1.4 | drug sensitivity score [12]: 0 | cell viability ([5]; 1 nM): 117% | cell viability ([5]; 10 nM): 78% | cell viability ([5]; 100 nM): 97.6% | cell viability ([5]; 1000 nM): 104% | cell viability ([5]; 10000 nM): 89.9% | cell viability ([7]; 1 nM): 98.4% | cell viability ([7]; 10 nM): 98.2% | cell viability ([7]; 100 nM): 92.5% | cell viability ([7]; 1000 nM): 103% | cell viability ([7]; 10000 nM): 93.5% | cell viability ([8]; 1 nM): 99.4% | cell viability ([8]; 10 nM): 88.7% | cell viability ([8]; 100 nM): 109% | cell viability ([8]; 1000 nM): 93.3% | cell viability ([8]; 10000 nM): 79.8% | cell viability ([13]; 1 nM): 97% | cell viability ([13]; 10 nM): 107% | cell viability ([13]; 100 nM): 98.4% | cell viability ([13]; 1000 nM): 102% | cell viability ([13]; 10000 nM): 97.9% | relative viability EC50 [9]: > 10 µM | relative viability EC50 [10]: > 10 µM | relative viability EC50 [11]: > 10 µM | relative viability EC50 [14]: > 10 µM

CCN1C[C@]2(OC(=O)c3ccccc3NC(C)=O)CC[C@H](OC)[C@@]34[C@@H]2C[C@@H]([C@@H]13)[C@@]1(O)C[C@H](OC)[C@H]2C[C@@H]4[C@]1(O)[C@H]2OC [lappaconite]
drug sensitivity score [2]: 0 | drug sensitivity score [3]: 0 | drug sensitivity score [4]: 0 | drug sensitivity score [12]: 0 | cell viability ([6]; 1 nM): 87.7% | cell viability ([6]; 10 nM): 99% | cell viability ([6]; 100 nM): 85.5% | cell viability ([6]; 1000 nM): 95.2% | cell viability ([6]; 10000 nM): 89.8% | cell viability ([7]; 1 nM): 103% | cell viability ([7]; 10 nM): 103% | cell viability ([7]; 100 nM): 98.1% | cell viability ([7]; 1000 nM): 99.1% | cell viability ([7]; 10000 nM): 94.4% | cell viability ([8]; 1 nM): 101% | cell viability ([8]; 10 nM): 97.1% | cell viability ([8]; 100 nM): 103% | cell viability ([8]; 1000 nM): 100% | cell viability ([8]; 10000 nM): 107% | cell viability ([13]; 1 nM): 103% | cell viability ([13]; 10 nM): 86.1% | cell viability ([13]; 100 nM): 94.1% | cell viability ([13]; 1000 nM): 102% | cell viability ([13]; 10000 nM): 106% | relative viability EC50 [15]: > 10 µM | relative viability EC50 [10]: > 10 µM | relative viability EC50 [11]: > 10 µM | relative viability EC50 [14]: > 10 µM
